Source: ChEMBL document CHEMBL1155253, “Synthesis, antitumor evaluation, molecular modeling and quantitative structure-activity relationship (QSAR) of some novel arylazopyrazolodiazine and triazine analogs” (Bioorg Med Chem, 2009)

How the values were obtained:
Assay type in all cases: organism-based, Ehrlich
Parameters in all cases: route oral
[1] = tested on: Mus musculus; assay: Toxicity in Swiss albino mouse bearing mouse EAC cells assessed as hemoglobin level at 50 to 250 mg/kg/day, po after 14 days postimplantation; details: in vivo, 336 h
[2] = tested on: Mus musculus; assay: Toxicity in Swiss albino mouse bearing mouse EAC cells assessed as increase in body weight at 50 to 250 mg/kg/day, po; details: in vivo
[3] = tested on: Mus musculus; assay: Toxicity in Swiss albino mouse bearing mouse EAC cells assessed as hematocrit level at 50 to 250 mg/kg/day, po after 14 days postimplantation; details: in vivo, 336 h
[4] = tested on: Mus musculus; assay: Toxicity in Swiss albino mouse bearing mouse EAC cells assessed as mean survival time at 50 to 250 mg/kg/day, po; details: in vivo
[5] = tested on: Mus musculus; assay: Toxicity in Swiss albino mouse bearing mouse EAC cells assessed as WBC count at 50 to 250 mg/kg/day, po after 14 days postimplantation; details: in vivo, 336 h

| Compound | Activity [1] [g/dL] | Activity [2] | Activity [3] [%] | MST [4] [days] | Activity [5] |
| --- | --- | --- | --- | --- | --- |
| Nc1nn2c(c1/N=N/c1ccc(/N=N/c3ccccc3)cc1)NC(=O)CC2 | 10.9 | Toxic | 43 | 17.1 | 12.8 |
| Nc1n[nH]c(/N=N/c2c(O)ccc3ccccc23)c1/N=N/c1ccc(/N=N/c2ccccc2)cc1 | 10.5 | Toxic | 43.7 | 17.8 | 11.5 |
| O=c1[nH]cc(F)c(=O)[nH]1 [FLUOROURACIL] | 10 | Toxic | 42.3 | 16.7 | 13.8 |
